Earlier results on two compounds are cited in patent publication US20070212498A1, “Optical film, antireflection film, polarizing plate, display apparatus and method for manufacturing optical film” (FUJIFILM Corporation, priority 2006, published 2007).

For the data set the following is noted: pKa of the conjugate acid, values in an aqueous solution (Kagaku Binran Kiso Hen).

In general, pKa refers to the negative logarithm of the acid dissociation constant. `CCC1CNCCO1` (centres unmarked) [b-13, 2-Ethyl morpholine]: the pKa is on record as 7.7.
In the case of `CC1CNCCO1` (centres unmarked) [b-14, 2-Methyl morpholine], the pKa is reported as 7.8.
